Series [1] has as its system ddy strain male mice. As to the kind of experiment: Toxicity test in mice, repeated subcutaneous administration. The series is classed as in vivo. The conditions noted are these: for toxicity: five ddy strain male mice of 5 weeks old. From the text:
(§1) Thus, the medicament of the present invention is a safe medicament of extremely low toxicity and can be administered for a long period of time.

Series [2] has as its system Wistar rats. Description: Toxicity test in rats, repeated subcutaneous administration. The conditions noted are these: 30 mg/kg s.c. for consecutive 21 days. The series is classed as in vivo.
Excerpt: as §1

The subject of series [3] is platelets (PLT). As to the kind of experiment: Effect on mice to which CPA was intraperitoneally administered: blood inspection, PLT. In kind it is in vivo, male C3H/HeN mice. As for the experimental part: (§2) Several groups each consisting of 10 male C3H/HeN mice of 8 weeks old were prepared. For the first group, 0.2 ml of physiological saline was subcutaneously administered for consecutive 12 days from 2 days before the examination to the 9th day of the examination. For the second group, FTS substance was subcutaneously administered once a day in an amount of 100 iig/0.2 ml for consecutive 12 days. For the third group, CPA was intraperitoneally administered in an amount of 400 mg/kg once on the zero day of the examination. For the fourth group, an administration schedule combining the second group with the third group was applied to the mice. For the fifth group, CPA was intraperitoneally administered in an amount 200 mg/kg once on the zero day of the examination. For the sixth group, an administration schedule combining the second group with the fifth group was applied to the mice. For the seventh group, CPA was intraperitoneally administered in an amount of 100 mg/kg once on the zero day of the examination. For the eighth group, an administration schedule combining the second group with the seventh group to the mice. During the examination, blood was collected by cutting axillary artery on the days of examination (0, 3rd, 5th, 7th, 10th and 14th days) and subjected to a blood inspection to measure the number of leucocytes (WBC), the number of erythrocytes (RBC), the number of reticulocytes (RET), the number of platelets (PLT), the number of hemoglobin (HGB), hematocrit value (HCT), a mean corpuscular volume, a mean corpuscular hemoglobin and a mean corpuscular hemoglobin concentration.

Series [4] concerns reticulocytes (RET). As to the kind of experiment: Effect on mice to which CPA was intraperitoneally administered: blood inspection, RET. The series is classed as in vivo, male C3H/HeN mice. The method, then: as §2, with “During the examination, blood was collected by cutting axillary artery on the days of examination (0, 3rd, 5th, 7th, 10th and 14th days) and subjected to a blood inspection to measure the number of leucocytes (WBC), the number of erythrocytes (RBC), the number of reticulocytes (RET), the number of platelets (PLT), the number of hemoglobin (HGB), hematocrit value (HCT), a mean corpuscular volume, a mean corpuscular hemoglobin and a mean corpuscular hemoglobin concentration.” left out

The subject of series [5] is leucocytes (WBC). Description: Effect on mice to which cyclophosphamide (CPA) was intraperitoneally administered: blood inspection, WBC. The series is classed as in vivo, male C3H/HeN mice. The conditions noted are these: for WBC, mean value ± S.D.: 400 mg/kg of CPA alone i.p. once on day zero. As for the experimental part: as §2
Series [6] can be described thus: Effect on mice to which CPA was intraperitoneally administered: body weight. In kind it is in vivo, male C3H/HeN mice. The following applies: CPA alone. As for the experimental part: as §2, with “During the examination, blood was collected by cutting axillary artery on the days of examination (0, 3rd, 5th, 7th, 10th and 14th days) and subjected to a blood inspection to measure the number of leucocytes (WBC), the number of erythrocytes (RBC), the number of reticulocytes (RET), the number of platelets (PLT), the number of hemoglobin (HGB), hematocrit value (HCT), a mean corpuscular volume, a mean corpuscular hemoglobin and a mean corpuscular hemoglobin concentration.” left out

Series [7] deals with leucocytes in peripheral blood. Description: Effect on mice to which MMC was intraperitoneally administered: leucocyte count. The series is classed as in vivo, female ICR/JCL mice. The following applies: MMC alone, 20 µg/0.1 ml i.p. once a day for 10 days. The method, then:
Four groups each consisting of 6 female ICR/JCL mice of 5 weeks old were treated as follows: For the first group, 0.1 ml of physiological saline was intraperitoneally administered to the mice for consecutive 12 days. For the second group, FTS substance was subcutaneously administered once a day in an amount of 100 u.g for consecutive 12 days. For the third group, MMC was intraperitoneally administered once a day in an amount of 20 µg/0.1 ml for 10 days from the zero day to the 9th day of the experiment. For the fourth group, FTS substance was subcutaneously administered to the mice once a day in an amount of 100 µg for consecutive 12 days from 2 days before the administration of MMC, and for 10 days from the […] after the administration of FTS substance MMC was intraperitoneally administered once a day in an amount of 20 u.g/0.1 ml. After the administration of the anti-cancer agent, blood was collected on alternate days from oculus vein and the numbr of leucocytes in the blood was counted.

Where [8] appears, read: 7th day, 400mg/kg of CPA alone i.p. once on day zero.

Square brackets hold non-standard residues; d marks the D form. Peptide text beside a SMILES is read from it. pGlu = O=C1CC[C@@H](C(=O)O)N1

With `C[C@H](NC(=O)[C@@H]1CCC(=O)N1)C(=O)N[C@@H](CCCCN)C(=O)N[C@@H](CO)C(=O)N[C@@H](CCC(N)=O)C(=O)NCC(=O)NCC(=O)N[C@@H](CO)C(=O)N[C@@H](CC(N)=O)C(=O)O` [effective ingredient, pGlu-Ala-Lys-Ser-Gln-Gly-Gly-Ser-Asn] ([pGlu]AKSQGGSN-OH), the toxicity entry in series [1] (50 mg/kg s.c. for consecutive 14 days), in series [1] (100mg/kg s.c. for consecutive 14 days) and in series [2] (ten Wistar rats of 5 weeks old) was “No toxicity was observed” throughout. In addition, in series [1] (100 mg/kg s.c. every day for consecutive 14 days, mice), the “abnormal symptoms by external check” value is reported as “no abnormal symptom was found”. For the same molecule, in series [2] (rats), the “abnormal symptoms in external behavior observation, biochemical diagnosis of sera and pathological anatomy” value is given as “no abnormal symptom was found”.

For `O=P1(N(CCCl)CCCl)NCCCO1` (stereo not drawn) [CPA, cyclophosphamide], the PLT change result in series [3] (400 mg/kg and 200 mg/kg of CPA, 7th day the minimum, recovered to the normal range on the 10th day) was “PLT was decreased”. In addition, the PLT in series [3] (5th day, 400 mg/kg of CPA alone i.p. once on day zero) is reported as 357±82 x 10^3/mm^3; in series [3] (setting [8]), 214±73 x 10^3/mm^3. In addition, the RET in series [4] (setting [8]) is 27.2±5.0 0/00. In series [4] (CPA administered, 5th day the minimum), the RET change entry is reported as “RET was decreased”. Besides, the “WBC, mean value ± S.D.” value was 11.6±2.1 x 10^2/mm^3 in series [5] (3rd day) and 4.2±1.0 x 10^2/mm^3 in series [5] (5th day). Further, the WBC change result in series [5] (CPA alone 400 mg/kg, 200 mg/kg or 100 mg/kg, 3rd, 5th and 7th day, 5th day the minimum) is on record as “considerably decreased”. Further, the body weight change result in series [6] is “decrease in body weight”.

On to `CO[C@@]12[C@H](COC(N)=O)C3=C(C(=O)C(C)=C(N)C3=O)N1C[C@@H]1N[C@@H]12` [MMC, mitomycine C], for which the “number of leucocytes, lowest level as % of the maximum normal range” value in series [7] is reported as “about 40%”.
